Laboratory results: EP0314302A2, “Herbicidal o-carbomethoxy-sulfonylureas” (E.I. DU PONT DE NEMOURS AND COMPANY, priority 1987, dated 1989)

What was measured:
Asystasia intrusa = assay: Test 4 plantation crop weeds, postemergence; format: in vivo; conditions: scale 0-100; for Control Rating 24 DAT: Table 4, at 4-leaf stage
Text: (§1) The object of this test was to evaluate the efficacy of the compound of this invention on weeds that infest some plantation crops at different growth stages of the weeds. Asystasia intrusa, Mikania cordata, goldenrod Solidago spp, Boston fern Nephrolepis exalata, and lalang Imparata cylindrica were planted in 15-cm plastic pots. Plants were sprayed postemergence with Compound I in a non-phytotoxic solvent. The Asystasia plants ranged in growth from 4 leaves to 9 leaves and very branched, Mikania had 6 leaves to vining, the goldenrod was branching and the Boston fern was growing vigorously. The degree of weed control was visually rated 20 to 24 days after treatment (DAT). Control ratings are based on the scale of 0 to 100 where 0 = no effect, 20 = minimal control and 100 = complete control. Variations in the results of the tests could be due to the fact that the tests were run at different times of the year or due to the stage of growth of the weeds.

Mikania cordata = assay: Test 4 plantation crop weeds, postemergence; format: in vivo; conditions: scale 0-100
Text: as §1

Nephrolepis exalata = assay: Test 4 plantation crop weeds, postemergence; format: in vivo; conditions: Table 4, scale 0-100
Text: as §1

Goldenrod = assay: Test 4 plantation crop weeds, postemergence; format: in vivo, Solidago spp; conditions: Table 6, profusely branching, scale 0-100
Text: as §1

Wild radish = assay: Test 7 postemergence; format: in vivo, Raphanus raphanistruna; conditions: scale 0-100
Description: (§2) Individual 11.4-cm plastic pots filled with planting medium were seeded with rape, wild radish (Raphanus raphanistruna). tansy mustard (Descurainia pinnata), ball mustard (Neslia paniculata), black mustard (Brassica nigra), yellow mustard, brown mustard, lentils, safflower, flax, sunflower, peanut, vetch, alfalfa, field bean, pea, violet (Viola spp), Kochia (Kochia spp), Russian thistle (Salsola spp), Matricaria spp, groundsel (Senecio spp), shepherdspurse (Capsella bursa-pastoris), nightshade (Solanum spp), sowthistle (Sonchus spp), sugar beet, wheat, "Bonanza" barley and "Morex" barley, Kentucky bluegrass (Poa pratensis), red clover (Trifolium pratense), dandelion (Taraxacum spp) and buckhorn plantain (Plantago lanceolata).
(§3) Plants were treated postemergence with the compound formulated with a non-phytotoxic carrier. Plants were visually rated 18 days after treatment (DAT). Response ratings were based on the scale of 0 to 100 where 0 = no effect, 20 = minimal injury and 100 = complete control.

Viola = assay: Test 7 postemergence; format: in vivo, Viola spp; conditions: scale 0-100
Description: as §2, §3

Kochia = assay: Test 7 postemergence; format: in vivo, Kochia spp; conditions: scale 0-100
Description: as §2, §3

Dandelion = assay: Test 7 postemergence; format: in vivo, Taraxacum spp; conditions: scale 0-100
Description: as §2, §3

Bahia grass = assay: Test 9 postemergence; format: in vivo, bahiagrass; conditions: 16 g/ha, scale 0-100
Description: (§4) Plastic windowsill pots containing planting medium were seeded with bahiagrass, bindweed (Convolvulus spp), guinea grass (Panicum maximum), large crabgrass (Digitaria sanguinalis) and pigweed (Amaranthus spp). Individual 15-cm plastic pots contained sandbur (Cenchrus echinatus), Mikania cordata, Boston fern (Nephrolepis exalata), quackgrass (Agropyron repens), elephantgrass (Pennisetum purpureum) and sowthistle (Sonchus spp) plants.
(§5) Plants were treated postemergence with Compound I formulated in a non-phytotoxic solvent. Plants were visually rated 22 days after treatment (DAT). Injury and weed control ratings were based on the scale of 0 to 100 where 0 = no effect, 20 = minimal control and 100 = complete control.

Bindweed = assay: Test 9 postemergence; format: in vivo, Convolvulus spp; conditions: 16 g/ha, scale 0-100
Description: as §4, §5

Guineagrass = assay: Test 11 citrus pots, preemergence to the weeds; format: in vivo, Panicum maximum; conditions: Preemergence 32 g/ha; 0.25% X-77 surfactant; scale 0-100
Description: (§6) Budded citrus seedlings were planted in 30-liter plastic pots which were also seeded with sandbur, guineagrass, narrowleaf panicum, common ragweed, yellow nutsedge, purple nutsedge and bindweed. Compound I was applied preemergence and postemergence to the weeds. Treatments were sprayed to simulate the trunk-to-trunk herbicide application method used in some citrus groves. The compound was also applied postemergence to weeds grown in windowsill flats. The flats were filled with planting medium and seeded with morningglory (Ipomoea spp.). purple nutsedge (Cyperus rotundus), pigweed (Amaranthus spp.), bindweed (Convolvulus spp.), narrowleaf panicum (Panicum maximum), common ragweed (Ambrosia artemisiifolia), sandbur (Cenchrus echinatus), itchgrass (Rottboellia exaltata), johnsongrass (Sorghum halepense), guineagrass (Panicum maximum), smooth crabgrass (Digitaria ischaemum), broadleaf signalgrass (Brachiaria platyphylla), bermudagrass (Cynodon dactylon), goosegrass (Eleusine indica), large crabgrass (Digitaria sanguinalis) and yellow nutsedge (Cyperus esculentus).
(§7) The compound was formulated and sprayed with 0.25% X-77 surfactant in water. Plants were visually rated 21 and 29 days after treatment and compared with appropriate controls. Injury ratings were based on the scale of 0 to 100, where 0 indicates no effect, 20 indicates minimum effect and 100 indicates complete control. […]

Narrowleaf panicum = assay: Test 11 citrus pots, preemergence to the weeds; format: in vivo, Panicum maximum; conditions: Preemergence 32 g/ha; 0.25% X-77 surfactant; scale 0-100
Description: as §6, §7

Common ragweed = assay: Test 11 citrus pots, preemergence to the weeds; format: in vivo, Ambrosia artemisiifolia; conditions: Preemergence 32 g/ha; 0.25% X-77 surfactant; scale 0-100
Description: as §6, §7

Yellow nutsedge = assay: Test 11 citrus pots, postemergence to the weeds; format: in vivo, Cyperus esculentus; conditions: Postemergence 32 g/ha, 0.25% X-77 surfactant, scale 0-100
Description: as §6, §7

Morningglory = assay: Test 11 windowsill flats, postemergence; format: in vivo, Ipomoea spp.; conditions: Postemergence 32 g/ha, 0.25% X-77 surfactant, scale 0-100
Description: as §6, §7

Broadleaf signalgrass = assay: Test 11 windowsill flats, postemergence; format: in vivo, Brachiaria platyphylla; conditions: Postemergence 32 g/ha, 0.25% X-77 surfactant, scale 0-100
Description: as §6, §7

[1] = Table 6, profusely branching, 8 g/ha
[2] = Table 6, profusely branching, 16 g/ha
[3] = Table 6, profusely branching, 32 g/ha
[4] = Table 6, profusely branching, 64 g/ha

COC(=O)c1cccnc1S(=O)(=O)NC(=O)Nc1nc(OC)cc(OC)n1 [Compound I, 2-[[(4,6-dimethoxypyrimidin-2-yl)aminocarbonyl]aminosulfonyl]-3-pyridinecarboxylic acid, methyl ester]
50: Control Rating 24 DAT (Asystasia intrusa; 32 g/ha)
40: Control Rating 24 DAT (Asystasia intrusa; 16 g/ha) | Control Rating 24 DAT (Nephrolepis exalata; 16 g/ha) | Plant Injury Rating 22 DAT (Bahia grass)
20: Control Rating 24 DAT (Asystasia intrusa; 4 g/ha) | Control Rating 22 DAT (Mikania cordata; Table 7, vining and profusely branching, 64 g/ha) | Control Rating 22 DAT (Mikania cordata; Table 8, 64 g/ha) | Injury ratings (Common ragweed)
90: Control Rating 20 DAT (Asystasia intrusa; Table 5, at 6 to 9-leaf stage, 32 g/ha) | Injury ratings (Morningglory)
60: Control Rating 24 DAT (Asystasia intrusa; 64 g/ha) | Control Rating 20 DAT (Asystasia intrusa; Table 5, at 6 to 9-leaf stage, 16 g/ha) | Control Rating 24 DAT (Nephrolepis exalata; 32 g/ha)
30: Control Rating 24 DAT (Asystasia intrusa; 8 g/ha) | Control Rating 20 DAT (Asystasia intrusa; [4]) | Control Rating 20 DAT (Mikania cordata; Table 5, at 6 to 8-leaf stage, 64 g/ha) | Control Rating 20 DAT (Goldenrod; 16 g/ha) | Control Rating 20 DAT (Goldenrod; 32 g/ha)
80: Control Rating 24 DAT (Nephrolepis exalata; 64 g/ha) | Injury ratings (Narrowleaf panicum)
70: Plant Injury Rating 22 DAT (Bindweed)
0: Control Rating 20 DAT (Asystasia intrusa; Table 5, at 6 to 9-leaf stage, 8 g/ha) | Control Rating 20 DAT (Asystasia intrusa; [1]) | Control Rating 20 DAT (Asystasia intrusa; [2]) | Control Rating 20 DAT (Asystasia intrusa; [3]) | Control Rating 20 DAT (Mikania cordata; Table 5, at 6 to 8-leaf stage, 8 g/ha) | Control Rating 20 DAT (Mikania cordata; Table 5, at 6 to 8-leaf stage, 16 g/ha) | Control Rating 20 DAT (Mikania cordata; Table 5, at 6 to 8-leaf stage, 32 g/ha) | Control Rating 20 DAT (Mikania cordata; [1]) | Control Rating 20 DAT (Mikania cordata; [2]) | Control Rating 20 DAT (Mikania cordata; [3]) | Control Rating 20 DAT (Mikania cordata; [4]) | Control Rating 22 DAT (Mikania cordata; Table 7, vining and profusely branching, 8 g/ha) | Control Rating 22 DAT (Mikania cordata; Table 7, vining and profusely branching, 16 g/ha) | Control Rating 22 DAT (Mikania cordata; Table 7, vining and profusely branching, 32 g/ha) | Control Rating 22 DAT (Mikania cordata; Table 8, 16 g/ha) | Control Rating 22 DAT (Mikania cordata; Table 8, 32 g/ha) | Control Rating 24 DAT (Nephrolepis exalata; 4 g/ha) | Control Rating 24 DAT (Nephrolepis exalata; 8 g/ha)
100: Control Rating 20 DAT (Asystasia intrusa; Table 5, at 6 to 9-leaf stage, 64 g/ha) | Plant Injury Rating 18 DAT (Wild radish; 16 g/ha) | Plant Injury Rating 18 DAT (Wild radish; 32 g/ha) | Plant Injury Rating 18 DAT (Viola; 16 g/ha) | Plant Injury Rating 18 DAT (Viola; 32 g/ha) | Plant Injury Rating 18 DAT (Kochia; 16 g/ha) | Plant Injury Rating 18 DAT (Kochia; 32 g/ha) | Plant Injury Rating 18 DAT (Dandelion; 16 g/ha) | Plant Injury Rating 18 DAT (Dandelion; 32 g/ha) | Injury ratings (Guineagrass) | Injury ratings (Yellow nutsedge) | Injury ratings (Broadleaf signalgrass)
